From patent US8871794B2, “Small-molecule agonists for type-2 orexin receptor” (Board of Regents, The University of Texas System, priority 2008, dated 2014)
Like-named read-outs stand apart in the source and are kept apart here.

Columns and labels:
No Receptor_CRE = test: CRE reporter assay, no receptor control; assay type: cell-based
[1] = IP pharmacokinetics in C57BL/6 mice (plasma and brain); assay type: in vivo, mouse; conditions: for AUC / Clearance / Kp / Cmax / half-life: IP 20 mg/kg; for Kp: brain/plasma, ip, 20 mg/kg; for half-life: read-out: Terminal half life
Protocol: Pharmacokinetics: Methods: Chembridge Compound 6037874 (“Yan7874”) was provided as a powdered stock and dissolved in DMSO at 50 mg/ml. The compound was formulated as 5% DMSO/5% Cremaphor EL/90% 5% dextrose, pH 7.2 such that compound could be administered to mice at 10-20 mg/kg in a volume of 0.2 ml by IV bolus.
A second experiment was conducted using 24 C57BL/6 mice (NCI, male, 6 weeks of age). These mice were weighed and injected with 20 mg/kg of compound formulated as described above IP in 0.2 ml. […] The mice were sacrificed as above in groups of three by inhalation overdose of CO2 and blood and brain obtained and processed as above.
An analytical method was developed to detect Yan7874 using LC/MS/MS.
A standard curve was developed in plasma in the following manner. 100 μl of plasma is spiked with varying concentrations of Yan7874. The plasma is allowed to sit 10′ at room temperature after vortexing. 200 μl of acetonitrile is added to precipitate plasma proteins and release bound drug. After vortexing, the sample is incubated 10′ at room temperature. 700 μl of PBS is added and the sample is centrifuged at 14,000 rpm in a standard microcentrifuge for 5′. 900 μl of supernatant is added to 1 ml of PBS. The entire sample is passed over a Waters OASIS HLB solid phased extraction column already primed by addition of 2 ml methanol and 2 ml H2O. The column is washed once with 2 ml of 5% methanol/2% NH4OH in H2O and once with 2 ml of 5% methanol/2% acetic acid in H2O and compound is eluted by addition of 2 ml of methanol containing 2% NH4OH. 500 μl of this is added to 500 μl of H2O containing 0.2% formic acid (final formic acid 0.1%). Samples are prepared in the same manner without addition of spiked compound. Brain tissue is prepared by homogenizing in 3× volume of PBS (weight in grams×3=volume in ml to add). 100 μl of blank brain lysate is used for preparation of standard curve samples while 100 μl of sample brain lysate is used for preparation of samples. To calculate brain levels, the concentration in ng/ml calculated from the standard curve is multiplied by the total volume of lysate (a value in ml estimated from the 3× volume of PBS added +1× volume to account for brain tissue itself) and then divided by the weight of the brain in grams. A value of 3× above the signal obtained from blank plasma or brain lysate is designated the limit of detection (LOD). The LOD for plasma is 2640 and for brain 459. The limit of quantitation (LOQ) is the lowest concentration at which back calculation yields a concentration within 20% of theoretical. The LOQ for both plasma and brain is 5 ng/ml. In general back calculation of points on both curves yielded values within 20% of theoretical over 4 orders of magnitude (10,000 to 5 ng/ml) for both sample types.

OX2R = target: T1, OX2R (Homo sapiens, UniProt O43614); test: NFAT-luciferase transcriptional reporter assay in transiently co-transfected HEK293T cells; assay type: cell-based; set-up: expressed in transfected cells; host or cells: HEK293T cells, transient co-transfection
T1 sequence (O43614 1-444): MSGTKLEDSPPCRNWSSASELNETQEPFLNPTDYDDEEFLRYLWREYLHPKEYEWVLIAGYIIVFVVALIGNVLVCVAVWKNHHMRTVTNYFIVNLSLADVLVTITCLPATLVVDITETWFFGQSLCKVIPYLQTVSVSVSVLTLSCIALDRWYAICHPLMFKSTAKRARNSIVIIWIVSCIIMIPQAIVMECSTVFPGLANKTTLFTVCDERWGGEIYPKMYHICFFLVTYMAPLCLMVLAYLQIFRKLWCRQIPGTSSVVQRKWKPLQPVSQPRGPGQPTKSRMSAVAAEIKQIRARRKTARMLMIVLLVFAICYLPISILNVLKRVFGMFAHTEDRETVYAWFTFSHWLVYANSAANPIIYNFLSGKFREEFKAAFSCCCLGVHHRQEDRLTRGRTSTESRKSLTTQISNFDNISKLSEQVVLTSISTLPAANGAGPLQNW

Fold Induction, No Receptor_CRE (No Receptor_CRE): 0.797
acute reaction after injection ([1]; 20 mg/kg IP): no acute reactions were noted
AUC ([1]; brain): 133,194 min*ng/g
Clearance ([1]; brain): 2.9 g/min
Clearance ([1]; plasma): 2.7 mL/min
Kp ([1]; male, C57BL/6, mouse, read-out: Blood Brain Penetration Ratio: AUC brain/AUC plasma): 0.9
Kp ([1]; male, C57BL/6, mouse, read-out: Blood Brain Penetration Ratio: Cmax brain/Cmax plasma): 0.3
Cmax ([1]; male, C57BL/6, mouse, brain): 337 ng/g
half-life ([1]; male, C57BL/6, mouse, brain): 3.39 h
Cmax ([1]; male, C57BL/6, mouse, plasma): 1.08 µg/mL
AUC ([1]; male, C57BL/6, mouse, plasma, read-out: AUC (converted)): 2.4 µg·h/mL
half-life ([1]; male, C57BL/6, mouse, plasma): 2.75 h
activation in transcriptional reporter assays (OX2R; HEK293T cells, NFAT-luciferase reporter plasmid and receptor cDNA plasmid): dramatic activation
Fold Induction, OX2R_NFTA (1) (OX2R; assay (1)): 10.94
Fold Induction, OX2R_NFTA (2) (OX2R; assay (2)): 35.566
SMILES: Cc1ccc(Cn2c(=N)n(CC(O)c3ccc(Cl)c(Cl)c3)c3ccccc32)cc1 (stereo not drawn) [Compound 130699]
